According to paper PMC9792601, “Conformational switch and multiple supramolecular structures of a newly identified self-assembling protein-mimetic peptide from Pseudomonas aeruginosa YeaZ protein” (Frontiers in Chemistry, 2022):
Ends that are not written are not given here.

Tests used:
[1] = Dynamic Light Scattering of aggregates; assay type: physicochemical; details: 25°C, aged 24 h
Experimental: Malvern Zetasizer Nano instrument (Malvern Panalytical, Ltd.) was employed for Dynamic Light Scattering (DLS) analysis, performed at 25°C. The instrument is equipped with a 633 nm […] He–Ne laser at a scattering angle of 173°. All the samples used to analyze the stability of the PMP-2 aggregates as a function of different DMSO/water ratio were prepared by solvent displacement technique starting from concentrated solutions in 100% DMSO (0.125, 0.2, 0.5, 2, 4, and 10 mM) to obtain 0.1 mM final concentrations in Milli-Q water, with 80%, 50%, 20%, 10%, 5%, 2.5% and 1% v/v of DMSO, respectively. All the samples used to analyze the stability of the PMP-2 aggregates as a function of concentration were prepared starting from 0.1 mM in Milli-Q water with 5% v/v of DMSO and diluting with Milli-Q water to obtain the final concentration of 0.05, 0.01, 0.005, and 0.001 mM. The corresponding refractive index and viscosity data of DMSO/water mixtures are reported in the literature ([LeBel and Goring, 1962]) and the samples were aged 24 h at room temperature before the measurements.

[2] = 20 mM hydrogel in Milli-Q water, room temperature, 10 months
Experimental: To prepare the hydrogels at different concentration, the lyophilized PMP-2 was dissolved in the suitable amount of Milli-Q water (final concentration of the prepared solutions: 0.1, 1, 2, 5, 10, and 20 mM) heating at 60°C for 3 min and sonicating for 1 min. The clear solutions were left cooling at rt.
5 Preparation of the PMP-2-based hydrogels
PMP-2 was dissolved in the suitable amount of milliQ water (final concentration of the prepared
solutions: 0.1 mM, 1 mM, 2 mM, 5 mM, 10 mM and 20 mM) heating at 60 °C for 3 minutes and
sonicating for 1 min. The clear solutions were left cooling at rt.
The 20 mM hydrogel was kept at room

[3] = Solubility observations in solvents; assay type: physicochemical

In the case of AIAIGVVQGLAFALGGKKKG [PMP-2], the DLS aggregate stability ([1]; 0.1 mM, 5, 2.5 and 1% v/v DMSO/water) is reported as “presence of stable aggregates”, the DLS aggregate stability ([1]; 0.1 mM, 20% and 10% DMSO in water) is reported as “formation of some stable aggregates” and the DLS aggregate stability ([1]; 0.1 mM, 100, 80 and 50% v/v DMSO/water) is reported as “very poor scattering power”. For the same sequence, the “stability of hydrogel on storage” value [2] was “complete stability”, the “highest reachable concentration in DMSO” value ([3]; DMSO) was 20 mM and the solubility in water ([3]; water, room temperature) was “low solubility at room temperature”.
